Source: ChEMBL document CHEMBL6083190, “Synthesis and mechanistic study of Aβ42 C-terminus domain derived tetrapeptides that inhibit Alzheimer's Aβ-aggregation-induced neurotoxicity” (Bioorg Med Chem Lett, 2024)
The source made the active and inactive calls. The calls are words filed in the database; no cut-off is given here. Non-standard residues stand in square brackets, D forms with d. Residues, ends and D or L forms follow the SMILES beside them. ξ: configuration not given here. Tle = CC(C)(C)[C@H](N)C(=O)O; ξOic = O=C(O)C1CC2CCCCC2N1; Aib = CC(C)(N)C(=O)O

Columns and labels:
[1] = test system: PC-12; assay: Protection against amyloid beta-induced neurotoxicity in rat PC-12 cells assessed as cell viability at 4 uM by MTT assay (reference value: 63.6 %); assay type: functional; settings: read-out: Activity
[2] = Inhibition of amyloid beta-induced neurotoxicity in rat PC-12 cells at 2 uM by MTT assay relative to control; assay type: functional
[3] = Inhibition of amyloid beta-induced neurotoxicity in rat PC-12 cells at 4 uM by MTT assay relative to control; assay type: functional
[4] = test system: PC-12; assay: Protection against amyloid beta-induced neurotoxicity in rat PC-12 cells assessed as cell viability at 10 uM by MTT assay (reference value: 63.6 %); assay type: functional; settings: read-out: Activity
[5] = Inhibition of amyloid beta-induced neurotoxicity in rat PC-12 cells at 10 uM by MTT assay relative to control; assay type: functional
[6] = test system: PC-12; assay: Protection against amyloid beta-induced neurotoxicity in rat PC-12 cells assessed as cell viability at 2 uM by MTT assay (reference value: 63.6 %); assay type: functional; settings: read-out: Activity
[7] = target: Amyloid-beta precursor protein (Homo sapiens) (UniProt P05067); assay: Inhibition of amyloid beta (1 to 42) (unknown origin) self-aggregation assessed as absence of fibrillar aggregates at 1:5 amyloid-beta:compound concentration ratio measured immediately by scanning transmission electron microscopic analysis
Sequence of Amyloid-beta precursor protein (Homo sapiens) (P05067 whole entry): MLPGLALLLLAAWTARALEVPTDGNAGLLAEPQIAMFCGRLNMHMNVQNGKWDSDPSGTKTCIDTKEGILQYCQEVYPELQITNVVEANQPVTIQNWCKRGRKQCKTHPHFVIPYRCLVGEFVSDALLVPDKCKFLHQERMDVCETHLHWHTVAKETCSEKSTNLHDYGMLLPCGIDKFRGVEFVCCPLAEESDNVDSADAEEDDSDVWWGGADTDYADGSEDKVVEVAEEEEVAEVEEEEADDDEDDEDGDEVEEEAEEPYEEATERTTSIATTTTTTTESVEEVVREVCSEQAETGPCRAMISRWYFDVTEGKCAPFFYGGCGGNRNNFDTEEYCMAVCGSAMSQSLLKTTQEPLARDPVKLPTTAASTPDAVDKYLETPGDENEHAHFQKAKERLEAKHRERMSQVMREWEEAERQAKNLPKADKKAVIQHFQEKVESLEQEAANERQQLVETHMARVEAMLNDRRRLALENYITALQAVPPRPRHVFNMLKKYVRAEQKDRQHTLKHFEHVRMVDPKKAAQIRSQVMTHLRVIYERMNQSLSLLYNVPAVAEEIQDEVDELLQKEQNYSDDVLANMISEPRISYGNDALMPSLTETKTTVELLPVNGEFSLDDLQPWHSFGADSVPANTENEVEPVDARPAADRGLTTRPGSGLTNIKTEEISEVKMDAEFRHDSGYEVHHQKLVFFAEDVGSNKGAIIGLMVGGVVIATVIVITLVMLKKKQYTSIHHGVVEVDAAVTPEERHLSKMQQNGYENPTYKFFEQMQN

[8] = target: Amyloid-beta precursor protein (Homo sapiens) (UniProt P05067); assay: Inhibition of amyloid beta (1 to 42) (unknown origin) self-aggregation assessed as absence of fibrillar aggregates at 1:5 amyloid-beta:compound concentration ratio incubated for 72 hrs by scanning transmission electron microscopic analysis
[9] = target: Amyloid-beta precursor protein (Homo sapiens) (UniProt P05067); assay: Inhibition of amyloid beta (1 to 42) (unknown origin) self-aggregation assessed as absence of fibrillar aggregates at 1:5 amyloid-beta:compound concentration ratio incubated for 72 hrs by high-resolution transmission electron microscopic analysis
[10] = target: Amyloid-beta precursor protein (Homo sapiens) (UniProt P05067); assay: Inhibition of amyloid beta (1 to 42) (unknown origin) self-aggregation assessed as absence of fibrillar aggregates at 1:5 amyloid-beta:compound concentration ratio measured immediately by high-resolution transmission electron microscopic analysis
[11] = target: Amyloid-beta precursor protein (Homo sapiens) (UniProt P05067); assay: Inhibition of amyloid beta (1 to 42) (unknown origin) self aggregation at 2 to 10 uM by ThT fluorescence assay; settings: dose 2-10 µM
[12] = target: Amyloid-beta precursor protein (Homo sapiens) (UniProt P05067); assay: Inhibition of amyloid beta (1 to 42) (unknown origin) self aggregation by ThT fluorescence assay relative to control; settings: concentration not given here

inhibition [7] | inhibition [10] | inhibition [11] | inhibition [12] [%] | Structure (SMILES) | viability at 4 µM [1] [%] | inhibition at 2 µM [2] [%] | inhibition at 4 µM [3] [%] | viability at 10 µM [4] [%] | inhibition at 10 µM [5] [%] | viability at 2 µM [6] [%] | inhibition [8] | inhibition [9]
 |  |  |  | CC[C@H](C)[C@H](NC(=O)[C@@H](NC(=O)[C@@H](N)C(C)C)C(C)C)C(=O)N[C@@H](C)C(N)=O | 59.4 | 0 | 0 | 63.4 | 0 | 60.7 |  | 
 |  |  |  | CC[C@H](C)[C@H](NC(=O)[C@H](C)N)C(=O)N[C@H](C(=O)N[C@H](C(N)=O)C(C)C)C(C)C | 69 | 0 | 15 | 58.3 | 0 | 55.2 |  | 
Not active; Small Aggregates Observed | Not active; Small Aggregates Observed |  |  | CC[C@H](C)[C@H](NC(=O)[C@@H](NC(=O)C1CC2CCCCC2N1)C(C)C)C(=O)N[C@@H](C)C(N)=O (stereo partly specified) | 63.3 | 5 | 0 | 57.7 | 0 | 65.3 | Not active; Formation Of Small, Non-Fibrillar Like Amorphous Aggregates Observed | Not active; Formation Of Small, Non-Fibrillar Like Amorphous Aggregates Observed
 |  | Active |  | CC[C@H](C)[C@H](NC(=O)[C@@H](NC(=O)C1Cc2ccccc2CN1)C(C)C)C(=O)N[C@@H](C)C(N)=O (stereo partly specified) | 62.4 | 14 | 0 | 61.8 | 0 | 68.8 |  | 
 |  | Active |  | CC[C@H](C)[C@H](NC(=O)[C@H](C)N)C(=O)N[C@H](C(=O)N[C@H](Cc1ccccc1)C(N)=O)C(C)C | 69.1 | 0 | 15 | 76.4 | 35 | 55.2 |  | 
 |  |  |  | CC[C@@H](C)[C@@H](NC(=O)[C@H](NC(=O)[C@H](N)C(C)C)C(C)C)C(=O)N[C@H](C)C(N)=O | 65.6 | 27 | 6 | 64.1 | 1 | 73.3 |  | 
 |  |  |  | CC[C@H](C)[C@H](NC(=O)[C@H](N)Cc1ccccc1)C(=O)N[C@H](C(=O)N[C@H](C(N)=O)C(C)C)C(C)C | 54.7 | 13 | 0 | 67 | 9.3 | 68.4 |  | 
 |  |  |  | CC[C@@H](C)[C@@H](NC(=O)[C@@H](C)N)C(=O)N[C@@H](C(=O)N[C@@H](C(N)=O)C(C)C)C(C)C | 63.3 | 14 | 0 | 74.6 | 30 | 68.7 |  | 
 |  | Active | > 50 | CC[C@H](C)[C@H](NC(=O)C1Cc2ccccc2CN1C(=O)[C@@H](N)C(C)C)C(=O)N[C@@H](C)C(N)=O (stereo partly specified) | 80.3 | 87 | 46 | 76.1 | 34 | 95.4 |  | 
 |  | Active |  | CC[C@H](C)[C@H](NC(=O)[C@H](C)N)C(=O)N[C@H](C(=O)NC(C)(C)C(N)=O)C(C)C (H-AIV[Aib]-NH2) | 67 | 32 | 9 | 70.9 | 20 | 75.3 |  | 
 |  |  |  | CC(C)[C@H](NC(=O)[C@@H](NC(=O)C(C)(C)NC(=O)[C@H](C)N)C(C)C)C(N)=O (H-A[Aib]VV-NH2) | 75.3 | 0 | 32 | 59.6 | 0 | 52.1 |  | 
 |  |  | > 50 | CC[C@H](C)[C@H](NC(=O)[C@@H](NC(=O)[C@@H](N)C(C)C)C(C)C)C(=O)N[C@@H](Cc1ccccc1)C(N)=O (H-VVIF-NH2) | 83.6 | 60 | 55 | 66.9 | 9 | 85.6 |  | 
 |  | Active |  | CC[C@H](C)[C@H](NC(=O)[C@@H](NC(=O)[C@@H](N)C(C)C)C(C)(C)C)C(=O)N[C@@H](C)C(N)=O (H-V[Tle]IA-NH2) | 78.8 | 39 | 42 | 74.9 | 31 | 77.7 |  | 
 |  |  |  | CC[C@H](C)[C@H](NC(=O)C1CC2CCCCC2N1C(=O)[C@@H](N)C(C)C)C(=O)N[C@@H](C)C(N)=O (stereo partly specified) (H-V[ξOic]IA-NH2) | 78.6 | 1 | 41 | 62.1 | 0 | 64.1 |  | 
 |  |  |  | CC[C@H](C)[C@H](NC(=O)[C@@H](NC(=O)[C@@H](N)C(C)(C)C)C(C)C)C(=O)N[C@@H](C)C(N)=O (H-[Tle]VIA-NH2) | 61.1 | 45 | 0 | 64.6 | 3 | 79.9 |  | 
